Here are results for two compounds from US20260199464A1, “COMPOSITIONS AND METHODS FOR ENHANCING CAR-T CELL PERFORMANCE AND FOR CANCER IMMUNOTHERAPY” (The Regents of the University of California, priority 2022, published 2026).

Data set [1] has as its system CD19 CAR T cell. The data set can be described thus: ZAA combined with CD19 CAR T cell treatment of established solid tumors (FIG. 9). It is filed as in vivo, mice. The text has this: FIG. 9 graphically illustrates data showing that ZAA can be combined with CAR T cell treatment of established solid tumors to increase the ability of CAR T cells to accumulate intratumorally. Tumor-bearing mice received tumor-specific CAR T cells in combination with Zaragozic Acid A. Tumor cells contained the surface protein CD19, which is recognized by the CAR anti-CD19 on the CD8 T cell (CD19 CAR T cell).

For data set [2], the system named is B16-GP33-41 melanoma tumors. Kind of data set: ZAA combined with anti-PD-1 in B16-GP33-41 melanoma tumors. It counts as in vivo, mice. The following applies: ZAA combined with anti-PD-1 treatment. From the text:
(§1) For adoptive therapy experiments, 5×10^5 B16-GP33-41 cells or MC38-GP33-41, which were verified Mycoplasma negative by PCR, and authenticated by in vitro killing assays, were transplanted subcutaneously into the right flank of wild-type B6 mice. After tumors became palpable, 7-8 days after transplantation, in vitro activated and expanded P14 CD8 T cells were transferred intravenously. For comparison of TIL accumulation in a mixed transfer setting, naive P14 CD8 T cells were activated, transduced and expanded with 50 U/mL of hIL-2 for 2-3 days; cells transduced with control constructs (Cd19 shRNAmir) or experimental constructs (Srebf2 shRNAmir) were mixed 1:1 and 1×10^6 P14 cells were transferred intravenously. For efficacy studies, transduced cells were expanded for 5-6 days; transduced cells were then sorted, and 1×10^6-2.5×10^6 cells were transferred intravenously into mice with established MC38-GP33-41 or B16-GP33-41 tumors. Tumors were monitored daily, and mice with ulcerated tumors or tumors exceeding 400 mm^2 were euthanized, in accordance with Univ. Calif. San Diego (UCSD) Institutional Animal Care and Use Committee (IACUC).
At day 6 after tumor injection, the mice were randomized and treated every other day with ZAA (Santa Cruz Biotechnology) or vehicle control by alternating intravenous ([…]) and intraperitoneal ([…]) injections until day 16. […]

Data set [3] concerns MC38-GP33-41 tumors. The data set can be described thus: ZAA treatment of mice implanted with MC38-GP33-41 tumors, with or without CD8 T cell depletion. It is filed as in vivo.
Description: as §1
At day 6 after tumor injection, the mice were randomized and treated every other day with ZAA (Santa Cruz Biotechnology) or vehicle control by alternating intravenous ([…]) and intraperitoneal ([…]) injections until day 16. For combination therapy with anti-PD1 (programmed cell death protein 1 (PD-1)) antibody, ZAA was administered with the same schedule, and three consecutive treatments of anti-PD1 (InVivoMab anti-mouse PD-1 (CD279), BioXCell, BE0033-2) at 200 μg/mouse were delivered IP on days 9, 10, and 11 after tumor injection. Isotype control for Syrian IgG was used (InVivoMAb polyclonal Syrian hamster IgG, BioXCell). […]

Data set [4] concerns B16-F10 tumors. Kind of data set: ZAA combined with anti-PD1 antibody, B16-F10 tumors implanted s.c. in B6 mice (FIG. 7, FIG. 8). It is filed as in vivo. As for the experimental part: FIG. 7 graphically illustrates data showing that tumor Growth Curves in B16-F10 tumors implanted subcutaneously (s.c.) in B6 mice. Tumor-bearing mice were treated with a combination of Zaragozic Acid A and anti-PD1 antibody.
FIG. 8 graphically illustrates data showing that ZAA synergizes with anti-PD1 therapy. Tumor-bearing mice were treated with a combination of Zaragozic Acid A and anti-PD1 antibody.
At day 6 after tumor injection, the mice were randomized and treated every other day with ZAA (Santa Cruz Biotechnology) or vehicle control by alternating intravenous ([…]) and intraperitoneal ([…]) injections until day 16. For combination therapy with anti-PD1 (programmed cell death protein 1 (PD-1)) antibody, ZAA was administered with the same schedule, and three consecutive treatments of anti-PD1 (InVivoMab anti-mouse PD-1 (CD279), BioXCell, BE0033-2) at 200 μg/mouse were delivered IP on days 9, 10, and 11 after tumor injection. Isotype control for Syrian IgG was used (InVivoMAb polyclonal Syrian hamster IgG, BioXCell). For CD8-depleting experiments in combination with ZAA, anti-CD8a Ab (2.43 BioXCell) was administered intraperitoneally at a dose of 200 μg/mouse starting 2 days prior to tumor implantation for three consecutive days (−2, −1, 0), followed by 2 additional doses of 100 μg/mouse on days 4 and 8, and ZAA treatment scheduled was started at day 4 after tumor implantation. Isotype control for Rat IgG2 was used (InVivoMAb rat IgG2a isotype control, anti-trinitrophenol, BioXCell).

A short description of data set [5]: Dependence of antitumor actions of ZAA on the immune system (FIG. 6). It counts as in vivo.
Data set [6] relates to P14 CD8 T cells. It counts as in vivo, mice.
Setting [7] is: ZAA vs vehicle, MC38-GP33-41 tumors.
The mark [8] stands for this setting: combination of Zaragozic Acid A and anti-PD1 antibody, B16-F10 s.c.

`C=C(CCC12O[C@H](C(=O)O)[C@@](O)(C(=O)O)C(C(=O)O)(O1)[C@H](OC(=O)/C=C/[C@@H](C)C[C@@H](C)CC)[C@H]2O)[C@@H](OC(C)=O)[C@H](C)Cc1ccccc1` (stereo partly shown) [ZAA, zaragozic acid A]: the “interaction with CD19 CAR T cell therapy” value in data set [1] (FIG. 9) was “synergizes”. In addition, in data set [1] (tumor-specific CD19 CAR T cells in combination with ZAA, CD19-bearing tumor cells), the “ability of CAR T cells to accumulate intratumorally” value is on record as “increase”. The “control of B16-GP33-41 melanoma tumors” value in data set [2] is recorded as “greater control”. Moreover, in data set [3] (ZAA in combination with CD8 T cell depletion), the “dependence of the antitumor effect on CD8 T cells” value is recorded as “CD8-dependent”. In data set [3] (setting [7]), the survival of mice entry is recorded as “improved” and the tumor growth result is reported as “reduced”. The “interaction with anti-PD1 therapy” value in data set [4] (FIG. 8, independent tumor growth curves from FIG. 7) is reported as “synergizes”. In data set [4] (setting [8]), the “treatment of established tumors, efficacy of the combination” value was “effectively” and the “treatment of established tumors, safety of the combination” value is “safely”. Further, the “antitumor actions, dependence on the immune system” value in data set [5] is reported as “depend on the immune system”.

Take `CC[C@H](C)C(=O)O[C@H]1C[C@@H](C)C=C2C=C[C@H](C)[C@H](CC[C@@H]3C[C@@H](O)CC(=O)O3)[C@H]21` [lovastatin]: the “accumulation of P14 CD8 T cells responding to LCMV in the SI” value in data set [6] (day 7 of infection, compared to the control group (vehicle)) is given as “impaired”. Also, in data set [6] (day 21 after LCMV infection), the “SI TRM” value was “sustained loss” and the “accumulation of memory T cells in the spleen” value is “impaired accumulation”.
